Source: patent publication US9884818B2, “Sulphamoylpyrrolamide derivatives and the use thereof as medicaments for the treatment of hepatitis B” (Janssen Sciences Ireland UC, priority 2013, dated 2018)

Assays:
[1] = Cytotoxicity in HepG2 cells, Resazurin viability assay; conditions: human, HepG2 cells, HepG2 4 days CC50 (μM), incubated for 4 days, Resazurin assay
HBV [2] = experiment: Anti-HBV activity, HepG2.2.15 stable transfected cell line, HBV DNA from secreted virions by realtime PCR; type: cell-based; conditions: Hepatitis B virus, HepG2.2.15, 144 h, HepG2.2.15 cells, 6 days of treatment, HBV DNA from secreted virions; read-out: HepG2 2.15 EC50
HBV [3] = experiment: Anti-HBV activity, HepG2.117 inducibly HBV producing cell line (Tet-off), intracellular HBV DNA by realtime PCR; type: cell-based; conditions: Hepatitis B virus, HepG2.117, 72 h, HepG2.117 cells, 3 days of treatment, intracellular HBV DNA; read-out: HepG2 117 EC50

| Compound | CC50 at 4 days [1] [µM] | EC50 (HBV [2]) [nM] | EC50 (HBV [3]) [nM] |
| --- | --- | --- | --- |
| C[C@@H](NS(=O)(=O)c1cn(C)c(C(=O)Nc2ccc(F)c(Cl)c2)c1Cl)C(F)(F)F [Compound 222, 3-Chloro-N-(3-chloro-4-fluorophenyl)-1-methyl-4-{[(1R)-2,2,2-trifluoro-1-methylethyl]sulfamoyl}-1H-pyrrole-2-carboxamide] | > 25 | 4 | 9 |
| CC(C)NS(=O)(=O)c1cc(C(=O)Nc2cc(F)c(F)c(C#N)c2)n(C)c1 [Compound 52, N-(3-cyano-4,5-difluoro-phenyl)-4-(isopropylsulfamoyl)-1-methyl-pyrrole-2-carboxamide] | > 25 | 260 | 330 |
| Cn1cc(S(=O)(=O)NC(C)(C)C)cc1C(=O)Nc1cccc(C#N)c1F [Compound 192, 4-(tert-Butylsulfamoyl)-N-(3-cyano-2-fluorophenyl)-1-methyl-1H-pyrrole-2-carboxamide] | > 25 | 570 | 190 |
| Cn1cc(S(=O)(=O)NC2CCC(F)(F)C2)cc1C(=O)Nc1cc(F)c(F)c(Cl)c1 (racemic) [Compound 166, N-(3-Chloro-4,5-difluorophenyl)-4-[(3,3-difluorocyclopentyl)sulfamoyl]-1-methyl-1H-pyrrole-2-carboxamide] | > 25 | 140 | 120 |
| C[C@@H](NS(=O)(=O)c1cn(C)c(C(=O)Nc2cc(Cl)c(F)c(C#N)c2)c1F)C(F)(F)F [Compound 313, N-(3-chloro-5-cyano-4-fluoro-phenyl)-3-fluoro-1-methyl-4-[[(1R)-2,2,2-trifluoro-1-methyl-ethyl]sulfamoyl]pyrrole-2-carboxamide] | > 25 | 20 | 50 |
| Cn1cc(S(=O)(=O)NC2(C)COC2)cc1C(=O)Nc1ccc(F)c(Cl)c1F [Compound 121, N-(3-Chloro-2,4-difluorophenyl)-1-methyl-4-[(3-methyloxetan-3-yl)sulfamoyl]-1H-pyrrole-2-carboxamide] | > 25 | 50 | 40 |
| C[C@@H](NS(=O)(=O)c1cc(C(=O)Nc2cccc(C(F)(F)F)c2)n(C)c1)C(F)(F)F [Compound 122, 1-methyl-4-[[(1R)-2,2,2-trifluoro-1-methyl-ethyl]sulfamoyl]-N-[3-(trifluoromethyl)phenyl]pyrrole-2-carboxamide] | 13.1 | 70 | > 1000 |
| C[C@@H](NS(=O)(=O)c1cn(C)c(C(=O)Nc2cccc(Br)c2)c1Cl)C(F)(F)F [Compound 250, N-(3-Bromophenyl)-3-chloro-1-methyl-4-{[(1R)-2,2,2-trifluoro-1-methylethyl]sulfamoyl}-1H-pyrrole-2-carboxamide] | 20 | 7 | 400 |
| C[C@H](NS(=O)(=O)c1cc(C(=O)Nc2ccc(F)c(Cl)c2)n(C)c1)C(F)(F)F [Compound 105, N-(3-Chloro-4-fluorophenyl)-1-methyl-4-{[(1S)-2,2,2-trifluoro-1-methylethyl]sulfamoyl}-1H-pyrrole-2-carboxamide] | > 25 | 30 | 20 |
| Cc1c(F)ccc(NC(=O)c2cc(S(=O)(=O)NC(C)(C)C(F)(F)F)cn2C)c1F [Compound 118, N-(2,4-Difluoro-3-methylphenyl)-1-methyl-4-[(2,2,2-trifluoro-1,1-dimethylethyl)sulfamoyl]-1H-pyrrole-2-carboxamide] | > 25 | 50 | 20 |
| Cn1cc(S(=O)(=O)NCC(F)(F)F)cc1C(=O)Nc1ccc(F)c(Cl)c1 [Compound 131, N-(3-Chloro-4-fluorophenyl)-1-methyl-4-[(2,2,2-trifluoroethyl)sulfamoyl]-1H-pyrrole-2-carboxamide] | > 25 | 10 | 10 |
| Cn1cc(S(=O)(=O)NC(CF)CF)cc1C(=O)Nc1ccc(F)c(C#N)c1 [Compound 242, N-(3-Cyano-4-fluorophenyl)-4-{[2-fluoro-1-(fluoromethyl)ethyl]sulfamoyl}-1-methyl-1H-pyrrole-2-carboxamide] | > 25 | 200 | 300 |
| Cn1cc(S(=O)(=O)NC2(C)CC(F)(F)C2)cc1C(=O)Nc1cc(F)c(F)c(Cl)c1 [Compound 65, N-(3-chloro-4,5-difluoro-phenyl)-4-[(3,3-difluoro-1-methyl-cyclo-butyl)sulfamoyl]-1-methyl-pyrrole-2-carboxamide] | > 25 | 10 | 10 |
| Cn1cc(S(=O)(=O)NC(C)(C)CF)cc1C(=O)Nc1ccc(F)c(C#N)c1 [Compound 249, N-(3-cyano-4-fluoro-phenyl)-4-[(2-fluoro-1,1-dimethyl-ethyl)sulfamoyl]-1-methyl-1H-pyrrole-2-carboxamide] | 1.7 | 70 | 180 |
| Cn1cc(S(=O)(=O)NC2(C(F)(F)F)CCC2)cc1C(=O)Nc1cc(F)c(F)c(Cl)c1 [Compound 189, N-(3-Chloro-4,5-difluorophenyl)-1-methyl-4-{[1-(trifluoromethyl)-cyclobutyl]sulfamoyl}-1H-pyrrole-2-carboxamide] | 11.3 | 7 | 7 |
| CC[C@@H](C)NS(=O)(=O)c1cc(C(=O)Nc2ccc(F)c(C#N)c2)n(C)c1 [Compound 294, N-(3-cyano-4-fluoro-phenyl)-1-methyl-4-[[(1R)-1-methylpropyl]-sulfamoyl]pyrrole-2-carboxamide] | > 25 | 40 | 100 |
| CC(CC(F)(F)F)NS(=O)(=O)c1cc(C(=O)Nc2cc(F)c(F)c(Cl)c2)n(C)c1 (racemic) [Compound 169, N-(3-Chloro-4,5-difluorophenyl)-1-methyl-4-[(3,3,3-trifluoro-1-methylpropyl)sulfamoyl]-1H-pyrrole-2-carboxamide] | 11.2 | 120 | 70 |
| Cc1c(S(=O)(=O)N[C@H](C)C(F)(F)F)cn(C)c1C(=O)Nc1ccc(F)c(C(F)(F)F)c1 [Compound 153, N-[4-Fluoro-3-(trifluoromethyl)phenyl]-1,3-dimethyl-4-{[(1R)-2,2,2-trifluoro-1-methylethyl]sulfamoyl}-1H-pyrrole-2-carboxamide] | > 25 | 270 | 150 |
| Cc1c(S(=O)(=O)N[C@H](C)C(F)(F)F)cn(C)c1C(=O)Nc1ccc(F)c(C#N)c1 [Compound 150, N-(3-Cyano-4-fluorophenyl)-1,3-dimethyl-4-{[(1R)-2,2,2-trifluoro-1-methylethyl]sulfamoyl}-1H-pyrrole-2-carboxamide] | > 25 | 90 | 60 |
| Cn1cc(S(=O)(=O)NC2(C)COC2)c(F)c1C(=O)Nc1cc(F)c(F)cc1F [Compound 109, 3-Fluoro-1-methyl-4-[(3-methyloxetan-3-yl)sulfamoyl]-N-(2,4,5-trifluorophenyl)-1H-pyrrole-2-carboxamide] | > 25 | 240 | 100 |
| Cc1cc(NC(=O)c2cc(S(=O)(=O)NC(C)(C)C(N)=O)cn2C)ccc1F [Compound 64, 4-[(2-amino-1,1-dimethyl-2-oxo-ethyl)sulfamoyl]-N-(4-fluoro-3-methyl-phenyl)-1-methyl-pyrrole-2-carboxamide] | > 25 | 130 | 50 |
